# Values joined by “and” are separate entries in the source; they are usually repeats but may differ in a detail not shown here. Identical values can stand only once. Toxic doses and inconclusive results are not listed.
# System: P388 leukemia ip, CD2F1 mice, survival T/C
# Test: NCI In Vivo Anticancer Drug Screen. Data for tumor model P388 Leukemia (intraperitoneal) in CD2F1 (CDF1) mice
# Conditions: endpoint: median survival time, higher = longer survival
# Summary of the method: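 Mice carrying the transplanted tumor received test compound or vehicle. Survival was recorded in each group, and the value is the treated-group measurement divided by that of the vehicle-treated control group.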
# [1] = dose: 60.0 mg/kg/injection, schedule: Q01DX005 (ip), vehicle: saline
# [2] = dose: 120.0 mg/kg/injection, schedule: Q01DX005 (ip), vehicle: saline
# [3] = dose: 240.0 mg/kg/injection, schedule: Q01DX005 (ip), vehicle: saline
# [4] = dose: 100.0 mg/kg/injection, schedule: Q01DX009 (ip), vehicle: saline with Tween-80
# [5] = dose: 200.0 mg/kg/injection, schedule: Q01DX009 (ip), vehicle: saline with Tween-80
# [6] = dose: 50.0 mg/kg/injection, schedule: Q01DX009 (ip), vehicle: Klucel (hydroxypropylcellulose) (HPC)
# [7] = dose: 100.0 mg/kg/injection, schedule: Q01DX009 (ip), vehicle: Klucel (hydroxypropylcellulose) (HPC)
# [8] = dose: 200.0 mg/kg/injection, schedule: Q01DX009 (ip), vehicle: Klucel (hydroxypropylcellulose) (HPC)
# [9] = dose: 50.0 mg/kg/injection, schedule: Q01DX005 (ip), vehicle: saline
# [10] = dose: 100.0 mg/kg/injection, schedule: Q01DX005 (ip), vehicle: saline
# [11] = dose: 200.0 mg/kg/injection, schedule: Q01DX005 (ip), vehicle: saline
# [12] = dose: 50.0 mg/kg/injection, schedule: Q01DX009 (ip), vehicle: saline with Tween-80
# [13] = dose: 50.0 mg/kg/injection, schedule: Q01DX005 (ip), vehicle: Klucel (hydroxypropylcellulose) (HPC)
# [14] = dose: 100.0 mg/kg/injection, schedule: Q01DX005 (ip), vehicle: Klucel (hydroxypropylcellulose) (HPC)
# [15] = dose: 200.0 mg/kg/injection, schedule: Q01DX005 (ip), vehicle: Klucel (hydroxypropylcellulose) (HPC)
# [16] = dose: 50.0 mg/kg/injection, schedule: Q01DX009 (ip), vehicle: saline
# [17] = dose: 100.0 mg/kg/injection, schedule: Q01DX009 (ip), vehicle: saline
# [18] = dose: 60.0 mg/kg/injection, schedule: Q01DX005 (ip), vehicle: saline with Tween-80
# [19] = dose: 120.0 mg/kg/injection, schedule: Q01DX005 (ip), vehicle: saline with Tween-80
# [20] = dose: 240.0 mg/kg/injection, schedule: Q01DX005 (ip), vehicle: saline with Tween-80
# [21] = dose: 50.0 mg/kg/injection, schedule: Q01DX005 (ip), vehicle: saline with Tween-80
# [22] = dose: 100.0 mg/kg/injection, schedule: Q01DX005 (ip), vehicle: saline with Tween-80
# [23] = dose: 6.25 mg/kg/injection, schedule: Q01DX009 (ip), vehicle: saline with Tween-80
# [24] = dose: 12.5 mg/kg/injection, schedule: Q01DX009 (ip), vehicle: saline with Tween-80
# [25] = dose: 25.0 mg/kg/injection, schedule: Q01DX009 (ip), vehicle: saline with Tween-80
# [26] = dose: 6.25 mg/kg/injection, schedule: Q01DX005 (ip), vehicle: saline with Tween-80
# [27] = dose: 12.5 mg/kg/injection, schedule: Q01DX005 (ip), vehicle: saline with Tween-80
# [28] = dose: 25.0 mg/kg/injection, schedule: Q01DX009 (ip), vehicle: Klucel (hydroxypropylcellulose) (HPC)
# [29] = dose: 200.0 mg/kg/injection, schedule: Q01DX005 (ip), vehicle: saline with Tween-80
smiles,measurement,setting,value
CN(C)CCCNC(=O)c1cccc2cccc(C(=O)O)c12,T/C,[1],97 % of control
same,T/C,[2],101 % of control
same,T/C,[3],104 % of control
O=C1OC(C(=O)O)c2ccc3c(c21)OCO3 (centres undefined),T/C,[4],100 % of control
same,T/C,[5],98 % of control
same,T/C,"dose: 400.0 mg/kg/injection, schedule: Q01DX009 (ip), vehicle: saline with Tween-80",91 % of control
O=S(=O)(c1ccc(NC(=S)N2CCOCC2)cc1)N1CCCCC1,T/C,[6],100 % of control
same,T/C,[7],96 % of control
same,T/C,[8],97 % of control
C=CCNC(=S)/N=C1\N=S(C)(=O)c2ccccc21 (centres undefined),T/C,[6],96 % of control
same,T/C,[7],94 % of control
same,T/C,[8],102 % of control
C=C(C(=O)OC)C(O)CC (centres undefined),T/C,[9],91 % of control
same,T/C,[10],107 % of control
same,T/C,[11],100 % of control
O=C1N(Br)C(=O)C(c2ccc(Cl)cc2)(c2ccc(Cl)cc2)N1Br,T/C,"dose: 11.0 mg/kg/injection, schedule: Q01DX009 (ip), vehicle: saline with Tween-80",122 % of control
same,T/C,"dose: 150.0 mg/kg/injection, schedule: Q01DX009 (ip), vehicle: saline with Tween-80",154 % of control
C1=Nc2ccccc2Oc2ccc3ccccc3c21,T/C,[12],107 % of control
same,T/C,[4],99 % of control
same,T/C,[5],107 % of control
c1ccc(-c2[nH]nc3nc4c(nc23)CCCC4)cc1,T/C,[13],89 % of control
same,T/C,[14],99 % of control
same,T/C,[15],92 % of control
CCCCCC(CN(C)C)C(/C=C/c1ccc(Cl)c(Cl)c1)=N\O (centres undefined),T/C,[16],116 % of control
same,T/C,[17],105 % of control
CC(=O)O[C@@H]1C[C@H]2C(C)(C)C(=O)C=C[C@]2(C)[C@H]2CC[C@]3(C)C(=CC(=O)O[C@H]3c3ccoc3)[C@@]21C,T/C,"dose: 2.5 mg/kg/injection, schedule: Q01DX009 (ip), vehicle: Klucel (hydroxypropylcellulose) (HPC)",103 % of control
same,T/C,"dose: 5.0 mg/kg/injection, schedule: Q01DX009 (ip), vehicle: Klucel (hydroxypropylcellulose) (HPC)",100 % of control
same,T/C,"dose: 10.0 mg/kg/injection, schedule: Q01DX009 (ip), vehicle: Klucel (hydroxypropylcellulose) (HPC)",103 % of control and 97 % of control
same,T/C,"dose: 20.0 mg/kg/injection, schedule: Q01DX009 (ip), vehicle: Klucel (hydroxypropylcellulose) (HPC)",95 % of control
same,T/C,"dose: 40.0 mg/kg/injection, schedule: Q01DX009 (ip), vehicle: Klucel (hydroxypropylcellulose) (HPC)",103 % of control
Nc1nnc(CCCCCCCc2nnc(N)o2)o1,T/C,[18],104 % of control
same,T/C,[19],99 % of control
same,T/C,[20],105 % of control
CCOC(=O)NC(NC(=O)OCC)C(=O)Nc1cccc2c(OC(=O)C(NC(=O)OCC)NC(=O)OCC)c(N=Nc3ccc(S(=O)(=O)Nc4nccs4)cc3)cc(N=Nc3ccc(S(=O)(=O)Nc4nccs4)cc3)c12 (tested in a mixture with another compound),T/C,[21],117 % of control
same,T/C,[22],112 % of control and 94 % of control
C=CC(=O)NC(C)(C)CC(=O)O,T/C,[16],100 % of control
same,T/C,[17],100 % of control
same,T/C,"dose: 200.0 mg/kg/injection, schedule: Q01DX009 (ip), vehicle: saline",99 % of control
S=c1[nH]c2cc(Cl)ccc2o1,T/C,[23],108 % of control
same,T/C,[24],96 % of control
same,T/C,[25],117 % of control
same,T/C,[12],105 % of control
O=P(OCCCl)(OCCCl)C(Nc1cccc2ccccc12)c1ccc(N(CCCl)CCCl)cc1 (centres undefined),T/C,[18],98 % of control
same,T/C,[19],95 % of control
same,T/C,[20],99 % of control
COC(=O)C1(CC(=O)c2ccc(F)cc2)NC(=S)NC(=O)C1C#N (centres undefined),T/C,[18],99 % of control
same,T/C,[19],98 % of control
same,T/C,[20],106 % of control
CCC(O)C(O)(c1ccccc1)c1nc2ccccc2s1 (centres undefined),T/C,[13],102 % of control
same,T/C,[14],102 % of control
same,T/C,[15],99 % of control
Oc1ccccc1C=Nc1ccc2nc(SC3CCCC3)sc2c1,T/C,[6],93 % of control
same,T/C,[7],97 % of control
same,T/C,[8],118 % of control
CCCC(NC(=O)C(C)Br)C(=O)O (centres undefined),T/C,"dose: 100.0 mg/kg/injection, schedule: Q04DX003 (ip), vehicle: saline with Tween-80",95 % of control
same,T/C,"dose: 200.0 mg/kg/injection, schedule: Q04DX003 (ip), vehicle: saline with Tween-80",100 % of control
same,T/C,"dose: 400.0 mg/kg/injection, schedule: Q04DX003 (ip), vehicle: saline with Tween-80",100 % of control
Cc1ccccc1C(=O)N1C(=O)Cc2ccccc21,T/C,"dose: 100.0 mg/kg/injection, schedule: Q01DX001 (ip), vehicle: Klucel (hydroxypropylcellulose) (HPC)",97 % of control
same,T/C,"dose: 200.0 mg/kg/injection, schedule: Q01DX001 (ip), vehicle: Klucel (hydroxypropylcellulose) (HPC)",91 % of control
same,T/C,"dose: 400.0 mg/kg/injection, schedule: Q01DX001 (ip), vehicle: Klucel (hydroxypropylcellulose) (HPC)",90 % of control
CC(=O)O/C(C)=C1\CCn2c1nc1ccccc1c2=O,T/C,[18],104 % of control
same,T/C,[19],107 % of control
same,T/C,[20],101 % of control
COC(=O)C12C3C4C1C1C2C3C41C(=O)OC (centres undefined),T/C,[18],102 % of control
same,T/C,[19],102 % of control
same,T/C,[20],102 % of control
CCOC(=O)C1=CNc2ccccc2N=C1N,T/C,[26],112 % of control
same,T/C,[27],115 % of control
same,T/C,"dose: 25.0 mg/kg/injection, schedule: Q01DX005 (ip), vehicle: saline with Tween-80",113 % of control
S=c1[nH]ccn1-c1ccccc1,T/C,[28],99 % of control
same,T/C,[6],104 % of control
same,T/C,[7],109 % of control
same,T/C,[8],95 % of control
C1Cc2[nH]nc(-c3n[nH]c4c3CCC4)c2C1,T/C,[1],97 % of control
same,T/C,[2],97 % of control
same,T/C,[3],97 % of control
O=S1(=O)CCC(c2ccccc2)C1 (centres undefined),T/C,[24],100 % of control
same,T/C,[25],105 % of control
same,T/C,[12],97 % of control
O=C(O)c1ccccc1-c1c2ccc(=Nc3ccccc3)cc-2oc2cc(Nc3ccc(S(=O)(=O)O)cc3)ccc12,T/C,[9],94 % of control
same,T/C,[10],98 % of control
same,T/C,[11],111 % of control
C=C(C)C1CC2(C)C(C)CC(O)CC2C(OC(=O)/C=C(/C)CC)C1O (centres undefined),T/C,"dose: 12.5 mg/kg/injection, schedule: Q01DX009 (ip), vehicle: Klucel (hydroxypropylcellulose) (HPC)",97 % of control
same,T/C,[28],98 % of control
same,T/C,[6],97 % of control
same,T/C,[7],97 % of control
O=C(COCC(=O)N/N=C/c1ccc(Cl)cc1)N/N=C/c1ccc(Cl)cc1,T/C,[26],95 % of control
same,T/C,[27],95 % of control
same,T/C,[29],95 % of control
O=[N+]([O-])c1cc(S(=O)(=O)O)c2cccnc2c1O,T/C,"dose: 100.0 mg/kg/injection, schedule: Q04DX003 (ip), vehicle: saline",86 % of control
same,T/C,"dose: 200.0 mg/kg/injection, schedule: Q04DX003 (ip), vehicle: saline",89 % of control
same,T/C,"dose: 400.0 mg/kg/injection, schedule: Q04DX003 (ip), vehicle: saline",88 % of control
Cc1nn(-c2ccccn2)c2ncnc(N)c12,T/C,[21],95 % of control
same,T/C,[22],101 % of control
same,T/C,[29],95 % of control
CCOC(=O)CCC(CNC(=O)c1ccccc1)NC(=O)c1ccccc1 (centres undefined),T/C,[18],98 % of control
same,T/C,[19],90 % of control
same,T/C,[20],88 % of control
C1N2CN3CN1CN(C2)C3,T/C,[9],95 % of control
same,T/C,[10],101 % of control
same,T/C,[11],96 % of control
O=P(c1ccccc1)(c1ccccc1)c1ccccc1.O=P(c1ccccc1)(c1ccccc1)c1ccccc1.O=P(c1ccccc1)(c1ccccc1)c1ccccc1.O=P(c1ccccc1)(c1ccccc1)c1ccccc1.[O-][Cl+3]([O-])([O-])O.[O]=[U+2]=[O],T/C,[23],88 % of control
same,T/C,[24],90 % of control
CC(C)(C)N=C(Nc1ccccc1Cl)C(Cl)CSc1ccccc1 (centres undefined),T/C,[13],100 % of control and 102 % of control
same,T/C,[14],100 % of control and 98 % of control
same,T/C,[15],105 % of control
O=C(c1ccccc1)c1ccccc1NC(=O)C(F)(F)F,T/C,[12],100 % of control
same,T/C,[4],95 % of control
same,T/C,[5],96 % of control
